pIC50: −log10 of the molar value.
Assays:
[1] = tested on: Mus musculus; assay: Anti-inflammatory activity against MRL/Ipr Systemic lupus erythematosus mouse model assessed as inhibition of anti-Sm/RNP Ab titer at 0.1 mg/kg, po administered for 8 weeks and measured 24 hrs post final dose relative to control; assay type: functional; set-up: scale not given: the % may be the effect or the level left; conditions: time 1368 hrs
[2] = tested on: Mus musculus; assay: Anti-inflammatory activity against MRL/Ipr Systemic lupus erythematosus mouse model assessed as inhibition of proteinuria at 5 mg/kg, po administered for 8 weeks and measured 24 hrs post final dose relative to control; assay type: functional; set-up: scale not given: the % may be the effect or the level left; conditions: time 1368 hrs
[3] = tested on: Mus musculus; assay: Anti-inflammatory activity against MRL/Ipr Systemic lupus erythematosus mouse model assessed as inhibition of anti-Sm/RNP Ab titer at 1 mg/kg, po administered for 8 weeks and measured 24 hrs post final dose relative to control; assay type: functional; set-up: scale not given: the % may be the effect or the level left; conditions: time 1368 hrs
[4] = Plasma protein binding in human assessed as free fraction; assay type: ADME, cell-free
[5] = Toxicity in MRL/Ipr Systemic lupus erythematosus mouse model assessed as relative spleen weight at 1 mg/kg, po administered for 8 weeks and measured 24 hrs post final dose relative to control; assay type: organism-based; conditions: in vivo, 1368 h
[6] = Half life in mouse blood at 5 mg/kg, iv; assay type: ADME, organism-based
[7] = Volume of distribution at steady state in mouse blood at 5 mg/kg, iv; assay type: ADME, organism-based; conditions: read-out: Vdss
[8] = In vivo antagonist activity at TRL9 in C57BL/6 mouse assessed as inhibition of ODN1585 stimulated IL-6 production at 30 mg/kg,po for 30 minutes and followed by ODN1585 addition measured after 90 mins by ELISA analysis relative to control; assay type: functional; set-up: scale not given: the % may be the effect or the level left; conditions: time 120 min, 2 h
[9] = (§1) In vivo antagonist activity at TRL7 in C57BL/6 mouse assessed as inhibition of gardiquimod stimulated IL-6 production at […],po for 30 minutes and followed by gardiquimod addition measured after 90 mins by ELISA analysis relative to control; assay type: functional; set-up: scale not given: the % may be the effect or the level left; conditions: time 120 min, 2 h
[10] = Clearance in mouse blood at 5 mg/kg, iv; assay type: ADME, organism-based
[11] = tested on: Mus musculus; assay: Anti-inflammatory activity against MRL/Ipr Systemic lupus erythematosus mouse model assessed as inhibition of anti-dsDNA Ab titer at 1 mg/kg, po administered for 8 weeks and measured 24 hrs post final dose relative to control; assay type: functional; set-up: scale not given: the % may be the effect or the level left; conditions: time 1368 hrs
[12] = In vivo antagonist activity at TRL7 in C57BL/6 mouse assessed as inhibition of gardiquimod stimulated IL-6 production at 0.5 mg/kg,po for 30 minutes and followed by gardiquimod addition measured after 90 mins by ELISA analysis relative to control; assay type: functional; set-up: scale not given: the % may be the effect or the level left; conditions: time 120 min, 2 h
[13] = tested on: Mus musculus; assay: Anti-inflammatory activity against MRL/Ipr Systemic lupus erythematosus mouse model assessed as inhibition of proteinuria at 1 mg/kg, po administered for 8 weeks and measured 24 hrs post final dose relative to control; assay type: functional; set-up: scale not given: the % may be the effect or the level left; conditions: time 1368 hrs
[14] = tested on: Mus musculus; assay: Anti-inflammatory activity against MRL/Ipr Systemic lupus erythematosus mouse model assessed as inhibition of urinary NGAL at 0.1 mg/kg, po administered for 8 weeks and measured 24 hrs post final dose relative to control; assay type: functional; set-up: scale not given: the % may be the effect or the level left; conditions: time 1368 hrs
[15] = tested on: Mus musculus; assay: Anti-inflammatory activity against MRL/Ipr Systemic lupus erythematosus mouse model assessed as inhibition of urinary NGAL at 5 mg/kg, po administered for 8 weeks and measured 24 hrs post final dose relative to control; assay type: functional; set-up: scale not given: the % may be the effect or the level left; conditions: time 1368 hrs
[16] = Toxicity in MRL/Ipr Systemic lupus erythematosus mouse model assessed as change in body weight at 0.1 to 20 mg/kg, po administered for 8 weeks and measured 24 hrs post final dose; assay type: organism-based; conditions: in vivo, 1368 h, dose 0.1-20 mg/kg
[17] = tested on: Mus musculus; assay: Anti-inflammatory activity against MRL/Ipr Systemic lupus erythematosus mouse model assessed as inhibition of urinary NGAL at 20 mg/kg, po administered for 8 weeks and measured 24 hrs post final dose relative to control; assay type: functional; set-up: scale not given: the % may be the effect or the level left; conditions: time 1368 hrs
[18] = target: T1, Toll-like receptor 7 (Homo sapiens, UniProt Q9NYK1); assay: Antagonist activity at gardiquimod stimulated TRL7 in human PBMC cells assessed as inhibition of IL-6 production by ELISA analysis; assay type: cell-based
T1 sequence (Q9NYK1 whole entry): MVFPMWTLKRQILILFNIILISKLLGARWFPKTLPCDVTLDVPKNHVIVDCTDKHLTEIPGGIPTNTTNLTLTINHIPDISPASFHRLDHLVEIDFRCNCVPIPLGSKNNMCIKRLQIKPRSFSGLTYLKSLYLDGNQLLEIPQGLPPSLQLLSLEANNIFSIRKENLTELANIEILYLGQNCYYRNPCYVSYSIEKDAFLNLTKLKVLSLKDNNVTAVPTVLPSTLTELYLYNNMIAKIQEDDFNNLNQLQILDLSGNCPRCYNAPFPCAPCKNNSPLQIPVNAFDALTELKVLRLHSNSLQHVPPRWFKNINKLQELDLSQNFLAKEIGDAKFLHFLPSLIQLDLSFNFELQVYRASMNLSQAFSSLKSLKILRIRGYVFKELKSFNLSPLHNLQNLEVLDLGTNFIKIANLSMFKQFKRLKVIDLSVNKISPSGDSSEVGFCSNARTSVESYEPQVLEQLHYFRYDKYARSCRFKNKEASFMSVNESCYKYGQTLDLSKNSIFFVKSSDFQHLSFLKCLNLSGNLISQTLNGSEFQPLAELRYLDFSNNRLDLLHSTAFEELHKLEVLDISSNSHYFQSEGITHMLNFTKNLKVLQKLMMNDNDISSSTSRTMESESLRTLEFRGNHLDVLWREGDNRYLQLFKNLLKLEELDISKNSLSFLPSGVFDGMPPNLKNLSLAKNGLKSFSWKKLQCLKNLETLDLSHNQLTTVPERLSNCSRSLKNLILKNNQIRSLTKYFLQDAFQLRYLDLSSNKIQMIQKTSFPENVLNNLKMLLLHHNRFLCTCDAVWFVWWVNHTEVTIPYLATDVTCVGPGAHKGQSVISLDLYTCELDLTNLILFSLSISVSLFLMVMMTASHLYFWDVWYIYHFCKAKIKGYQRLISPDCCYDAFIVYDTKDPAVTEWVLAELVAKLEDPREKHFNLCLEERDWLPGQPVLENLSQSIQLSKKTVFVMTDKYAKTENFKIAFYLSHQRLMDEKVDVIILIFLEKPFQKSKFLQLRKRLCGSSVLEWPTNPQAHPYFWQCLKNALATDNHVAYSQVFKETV

[19] = Toxicity in MRL/Ipr Systemic lupus erythematosus mouse model assessed as relative spleen weight at 5 mg/kg, po administered for 8 weeks and measured 24 hrs post final dose relative to control; assay type: organism-based; conditions: in vivo, 1368 h
[20] = Plasma protein binding in rat assessed as free fraction; assay type: ADME, cell-free
[21] = as §1; assay type: functional; set-up: scale not given: the % may be the effect or the level left; conditions: time 120 min, 2 h; remark: listed apart in the source
[22] = Oral bioavailability in mouse blood at 15 mg/kg; assay type: ADME, organism-based
[23] = tested on: Mus musculus; assay: Anti-inflammatory activity against MRL/Ipr Systemic lupus erythematosus mouse model assessed as inhibition of anti-dsDNA Ab titer at 5 mg/kg, po administered for 8 weeks and measured 24 hrs post final dose relative to control; assay type: functional; set-up: scale not given: the % may be the effect or the level left; conditions: time 1368 hrs
[24] = Toxicity in MRL/Ipr Systemic lupus erythematosus mouse model assessed as relative spleen weight at 20 mg/kg, po administered for 8 weeks and measured 24 hrs post final dose relative to control; assay type: organism-based; conditions: in vivo, 1368 h
[25] = tested on: Mus musculus; assay: Anti-inflammatory activity against MRL/Ipr Systemic lupus erythematosus mouse model assessed as inhibition of anti-Sm/RNP Ab titer at 5 mg/kg, po administered for 8 weeks and measured 24 hrs post final dose relative to control; assay type: functional; set-up: scale not given: the % may be the effect or the level left; conditions: time 1368 hrs

fraction unbound [4]: 0.09 | half-life [6]: 9 h | Vd [7]: 113 L/kg | clearance [10]: 146 mL/min/kg | pIC50 [18]: 9.00 | fraction unbound [20]: 0.11 | bioavailability [22]: 58%
Compound: Cc1cc(-c2[nH]c3ccc(C4CCNCC4)cc3c2C(C)C)cc(C)n1
Activity [1]: 27% | Activity [2]: 92% | Activity [3]: 84% | Activity [5]: 48% | Activity [8]: 38% | Activity [9]: 16% | Activity [11]: 14% | Activity [12]: 98% | Activity [13]: 92% | Activity [14]: 52% | Activity [15]: 72% | Activity [16]: Non-Toxic | Activity [17]: 81% | Activity [19]: 49% | Activity [21]: 83% | Activity [23]: 20% | Activity [24]: 51% | Activity [25]: 74%
